# Legend:
# [1] = tested on: A549; test: Cytotoxicity against human A549 cells after 1 hr compound washout; type: functional, cell-based; conditions: A549, 1 h
# [2] = tested on: A549; test: Cytotoxicity against human A549 cells after 48 hrs; type: functional, cell-based; conditions: A549, 48 h
# [3] = tested on: SF-295; test: Cytotoxicity against human SF295 cells after 1 hr; type: functional, cell-based; conditions: SF-295, 1 h
# [4] = tested on: SF-295; test: Cytotoxicity against human SF295 cells after 1 hr compound washout; type: functional, cell-based; conditions: SF-295, 1 h
# [5] = tested on: SF-295; test: Cytotoxicity against human SF295 cells after 48 hrs; type: functional, cell-based; conditions: SF-295, 48 h
# [6] = tested on: CCRF-CEM; test: Cytotoxicity against human CCRF-CEM cells; type: functional
# [7] = tested on: HL-60; test: Cytotoxicity against human HL60 cells; type: functional
# [8] = tested on: MOLT-4; test: Cytotoxicity against human MOLT4 cells; type: functional
# [9] = tested on: RPMI-8226; test: Cytotoxicity against human RPMI8226 cells; type: functional
# [10] = tested on: SR; test: Cytotoxicity against human SR cells; type: functional
# [11] = tested on: A549; test: Cytotoxicity against human A549 cells; type: functional
# [12] = tested on: HOP-62; test: Cytotoxicity against human HOP62 cells; type: functional
# [13] = tested on: NCI-H226; test: Cytotoxicity against human NCI-H226 cells; type: functional
# [14] = tested on: NCI-H23; test: Cytotoxicity against human NCI-H23 cells; type: functional
# [15] = tested on: NCI-H460; test: Cytotoxicity against human NCI-H460 cells; type: functional
# [16] = tested on: HCC 2998; test: Cytotoxicity against human HCC2998 cells; type: functional
# [17] = tested on: HCT-116; test: Cytotoxicity against human HCT116 cells; type: functional
# [18] = tested on: HCT-15; test: Cytotoxicity against human HCT15 cells; type: functional
# [19] = tested on: HT-29; test: Cytotoxicity against human HT-29 cells; type: functional
# [20] = tested on: KM12; test: Cytotoxicity against human KM12 cells; type: functional
# [21] = tested on: SW-620; test: Cytotoxicity against human SW620 cells; type: functional
# [22] = tested on: SF-268; test: Cytotoxicity against human SF268 cells; type: functional
# [23] = tested on: SF-295; test: Cytotoxicity against human SF295 cells; type: functional
# [24] = tested on: SF-539; test: Cytotoxicity against human SF539 cells; type: functional
# [25] = tested on: SNB-19; test: Cytotoxicity against human SNB19 cells; type: functional
# [26] = tested on: SNB-75; test: Cytotoxicity against human SNB75 cells; type: functional
# [27] = tested on: U-251; test: Cytotoxicity against human U251 cells; type: functional
# [28] = tested on: M14; test: Cytotoxicity against human M14 cells; type: functional
# [29] = tested on: SK-MEL-2; test: Cytotoxicity against human SK-MEL-2 cells; type: functional
# [30] = tested on: SK-MEL-28; test: Cytotoxicity against human SK-MEL-28 cells; type: functional
# [31] = tested on: SK-MEL-5; test: Cytotoxicity against human SK-MEL-5 cells; type: functional
# [32] = tested on: UACC-257; test: Cytotoxicity against human UACC257 cells; type: functional
# [33] = tested on: UACC-62; test: Cytotoxicity against human UACC62 cells; type: functional
# [34] = tested on: OVCAR-3; test: Cytotoxicity against human OVCAR-3 cells; type: functional
# [35] = tested on: OVCAR-4; test: Cytotoxicity against human OVCAR4 cells; type: functional
# [36] = tested on: OVCAR-5; test: Cytotoxicity against human OVCAR5 cells; type: functional
# [37] = tested on: OVCAR-8; test: Cytotoxicity against human OVCAR8 cells; type: functional
# [38] = tested on: SK-OV-3; test: Cytotoxicity against human SKOV3 cells; type: functional
# [39] = Cytotoxicity against human 786-O cells; type: functional
# [40] = tested on: A498; test: Cytotoxicity against human A498 cells; type: functional
# [41] = tested on: CAKI-1; test: Cytotoxicity against human Caki1 cells; type: functional
# [42] = tested on: RXF 393; test: Cytotoxicity against human RXF393 cells; type: functional
# [43] = tested on: UO-31; test: Cytotoxicity against human UO31 cells; type: functional
# [44] = tested on: MDA-MB-231; test: Cytotoxicity against human MDA-MB-231 cells; type: functional
# [45] = Cytotoxicity against human Hs 578T cells; type: functional
# [46] = tested on: MDA-MB-435; test: Cytotoxicity against human MDA-MB-435 cells; type: functional
# [47] = tested on: T47D; test: Cytotoxicity against human T47D cells; type: functional
# [48] = read-out: pLC50 (the source's name) (converted)
smiles,measurement,setting,value
COc1cc(/C=C/c2cc(O)c(C/C=C(\C)CCC=C(C)C)c(O)c2)cc2c1O[C@]1(C)C[C@@H](O)[C@@H](O)C(C)(C)[C@H]1C2 [SCHWEINFURTHIN B],IC50,[1],80 µg/mL
same,IC50,[2],7.1 µg/mL
same,IC50,[3],> 100 µg/mL
same,IC50,[4],2.9 µg/mL
same,IC50,[5],0.009 µg/mL
same,GI50,[6],0.229 µM
same,LC50,[6],> 100 µM
same,TGI,[6]; read-out: pTGI (converted),6.31 µM
same,GI50,[7],0.0372 µM
same,LC50,[7],> 100 µM
same,TGI,[7]; read-out: pTGI (converted),1.29 µM
same,GI50,[8],0.0479 µM
same,LC50,[8],11 µM
same,TGI,[8]; read-out: pTGI (converted),5.25 µM
same,GI50,[9],0.0151 µM
same,LC50,[9],12 µM
same,TGI,[9]; read-out: pTGI (converted),0.11 µM
same,GI50,[10],0.257 µM
same,LC50,[10],58.9 µM
same,TGI,[10]; read-out: pTGI (converted),12 µM
same,GI50,[11],0.339 µM
same,LC50 (concentration killing 50% of cells),[11],38.9 µM
same,TGI,[11]; read-out: pTGI (converted),14.1 µM
same,GI50,[12],0.851 µM
same,LC50,[12],40.7 µM
same,TGI,[12]; read-out: pTGI (converted),14.1 µM
same,GI50,[13],2.19 µM
same,LC50,[13],77.6 µM
same,TGI,[13]; read-out: pTGI (converted),14.1 µM
same,GI50,[14],3.24 µM
same,LC50,[14],51.3 µM
same,TGI,[14]; read-out: pTGI (converted),19.1 µM
same,GI50,[15],0.269 µM
same,LC50,[15],57.5 µM
same,TGI,[15]; read-out: pTGI (converted),12.9 µM
same,GI50,[16],3.63 µM
same,LC50,[16],34.7 µM
same,TGI,[16]; read-out: pTGI (converted),11 µM
same,GI50,[17],0.575 µM
same,LC50,[17],22.9 µM
same,TGI,[17]; read-out: pTGI (converted),6.61 µM
same,GI50,[18],1.91 µM
same,LC50,[18],33.9 µM
same,TGI,[18]; read-out: pTGI (converted),6.92 µM
same,GI50,[19],0.372 µM
same,LC50,[19],5.5 µM
same,TGI,[19]; read-out: pTGI (converted),2.09 µM
same,GI50,[20],1.29 µM
same,LC50,[20],18.2 µM
same,TGI,[20]; read-out: pTGI (converted),9.33 µM
same,GI50,[21],0.676 µM
same,LC50,[21],17 µM
same,TGI,[21]; read-out: pTGI (converted),3.09 µM
same,GI50,[22],4.37 µM
same,LC50,[22],75.9 µM
same,TGI,[22]; read-out: pTGI (converted),24 µM
same,LC50,[23],3.89 µM
same,GI50,[23]; read-out: pGI50 (converted),0.024 µM
same,TGI,[23]; read-out: pTGI (converted),0.288 µM
same,GI50,[24],0.151 µM
same,LC50,[24],14.1 µM
same,TGI,[24]; read-out: pTGI (converted),2 µM
same,GI50,[25],0.398 µM
same,LC50,[25],40.7 µM
same,TGI,[25]; read-out: pTGI (converted),15.8 µM
same,GI50,[26],0.0251 µM
same,LC50,[26],60.3 µM
same,TGI,[26]; read-out: pTGI (converted),1.82 µM
same,GI50,[27],0.2 µM
same,LC50,[27],49 µM
same,TGI,[27]; read-out: pTGI (converted),24 µM
same,GI50,[28],0.141 µM
same,LC50,[28],4.17 µM
same,TGI,[28]; read-out: pTGI (converted),1.2 µM
same,GI50,[29],1.82 µM
same,LC50,[29],46.8 µM
same,TGI,[29]; read-out: pTGI (converted),17 µM
same,GI50,[30],1.1 µM
same,LC50,[30],52.5 µM
same,TGI,[30]; read-out: pTGI (converted),12.9 µM
same,GI50,[31],0.209 µM
same,LC50,[31],28.8 µM
same,TGI,[31]; read-out: pTGI (converted),8.91 µM
same,GI50,[32],5.75 µM
same,LC50,[32],46.8 µM
same,TGI,[32]; read-out: pTGI (converted),20.9 µM
same,GI50,[33],0.331 µM
same,LC50,[33],10 µM
same,TGI,[33]; read-out: pTGI (converted),2.29 µM
same,GI50,[34],3.89 µM
same,LC50,[34],42.7 µM
same,TGI,[34]; read-out: pTGI (converted),12.9 µM
same,GI50,[35],12 µM
same,LC50,[35],77.6 µM
same,TGI,[35]; read-out: pTGI (converted),50.1 µM
same,GI50,[36],7.08 µM
same,LC50 (concentration killing 50% of cells),[36],44.7 µM
same,TGI,[36]; read-out: pTGI (converted),19.1 µM
same,GI50,[37],11 µM
same,LC50,[37],64.6 µM
same,TGI,[37]; read-out: pTGI (converted),26.9 µM
same,GI50,[38],2.57 µM
same,LC50,[38],40.7 µM
same,TGI,[38]; read-out: pTGI (converted),15.8 µM
same,GI50,[39]; 786-0,0.0219 µM
same,LC50,[39]; 786-0,14.1 µM
same,TGI,"[39]; 786-0, read-out: pTGI (converted)",1.91 µM
same,GI50,[40],1.7 µM
same,LC50,[40],44.7 µM
same,TGI,[40]; read-out: pTGI (converted),17 µM
same,GI50,[41],1.91 µM
same,LC50,[41],75.9 µM
same,TGI,[41]; read-out: pTGI (converted),28.8 µM
same,GI50,[42],0.01 µM
same,LC50,[42],7.08 µM
same,TGI,[42]; read-out: pTGI (converted),0.269 µM
same,GI50,[43],0.0759 µM
same,LC50,[43],5.25 µM
same,TGI,[43]; read-out: pTGI (converted),0.912 µM
same,GI50,[44],6.46 µM
same,CC50,[44]; [48],81.3 µM
same,TGI,[44]; read-out: pTGI (converted),38 µM
same,GI50,[45],0.0199 µM
same,CC50,[45]; [48],> 100 µM
same,TGI,[45]; read-out: pTGI (converted),1.1 µM
same,GI50,[46],7.59 µM
same,CC50,[46]; [48],72.4 µM
same,TGI,[46]; read-out: pTGI (converted),33.1 µM
same,GI50,[47],11 µM
same,CC50,[47]; [48],> 100 µM
same,TGI,[47]; read-out: pTGI (converted),69.2 µM
